Assay results reported in ChEMBL document CHEMBL3425422, “Discovery of a potent microtubule-targeting agent: Synthesis and biological evaluation of water-soluble amino acid prodrug of combretastatin A-4 derivatives” (Bioorg Med Chem Lett, 2015).
The source made the active and inactive calls. The rule behind the calls is not given here.

Key:
[1] = Cytotoxicity against human H460 cells assessed as cell viability after 48 hrs by MTT assay; type: functional, cell-based; settings: NCI-H460, 48 h
[2] = Aqueous solubility of the compound; type: physicochemical; settings: water (aqueous)
HepG2 [3] = experiment: Cytotoxicity against human HepG2 cells assessed as cell viability after 48 hrs by MTT assay; type: functional, cell-based; settings: HepG2, 48 h
[4] = Cytotoxicity against human SKOV3 cells assessed as cell viability after 48 hrs by MTT assay; type: functional, cell-based; settings: SK-OV-3, 48 h
Serum [5] = experiment: Stability of the compound in Wistar rat serum assessed as prodrug degradation after 24 hrs; type: ADME, cell-free
Serum [6] = experiment: Stability of the compound in Wistar rat serum assessed as prodrug degradation after 6 hrs; type: ADME, cell-free
NCI-H460 = experiment: Antitumor activity against human H460 cells xenografted in BALB/C mouse assessed as mouse survival at 20 mg/kg, ip qd relative to control; type: functional, organism-based; parameters: dose 20 mg/kg
[7] = Antitumor activity against human H460 cells xenografted in BALB/C mouse assessed as inhibition ratio at 20 mg/kg, ip qd relative to control; type: functional; settings: NCI-H460, ip, route intraperitoneal
[8] = Antitumor activity against human SKOV3 cells xenografted in BALB/C mouse assessed as inhibition ratio at 10 mg/kg, iv qd relative to control; type: functional; settings: SK-OV-3
SK-OV-3 [9] = experiment: Antitumor activity against human SKOV3 cells xenografted in BALB/C mouse assessed as mouse survival at 10 mg/kg, iv qd relative to control; type: functional, organism-based; parameters: dose 10 mg/kg
SK-OV-3 [10] = experiment: Antimitotic effect in human SKOV3 cells assessed as increase in cyclin B level by Western blot analysis; type: functional, cell-based
Tubulin (Homo sapiens) [11] = target: T1, Tubulin (Homo sapiens) (UniProt P68371+Q9H4B7+P0DPH7+P68366+Q13509+Q71U36+P04350+Q3ZCM7+P07437+P68363+Q9BQE3+Q6PEY2+Q13885+Q9BVA1+Q9BUF5); experiment: Displacement of colchicine from tubulin (unknown origin) after 1 hr by fluorescence based competitive tubulin-binding assay; type: protein-complex assay
Tubulin (Homo sapiens) [12] = target: T1, Tubulin (Homo sapiens); experiment: Inhibition of tubulin polymerization in human SKOV3 cells assessed as increase in depolymerized (soluble) tubulin level at 0.1 to 1 uM after 24 hrs by Western blot analysis; type: cell-based; settings: SK-OV-3
SK-OV-3 [13] = experiment: Induction of apoptosis in human SKOV3 cells assessed as decrease in pro-caspase-9 protein level at 100 to 1000 nM after 48 hrs by Western blot analysis; type: functional, cell-based
SK-OV-3 [14] = experiment: Induction of cell cycle arrest in human SKOV3 cells assessed as accumulation at S phase at 500 nM after 24 hrs by FCM analysis (reference value: 24.09%); type: functional
SK-OV-3 [15] = experiment: Induction of MAPK phosphorylation in human SKOV3 cells at 500 nM after 24 hrs by Western blot analysis; type: functional, cell-based
SK-OV-3 [16] = experiment: Induction of cell cycle arrest in human SKOV3 cells assessed as accumulation at G2/M phase after 24 hrs by FCM analysis; type: functional, cell-based
SK-OV-3 [17] = experiment: Antimitotic effect in human SKOV3 cells assessed as decrease in cdc2 level by Western blot analysis; type: functional, cell-based
SK-OV-3 [18] = experiment: Antimitotic effect in human SKOV3 cells assessed as decrease in cdc25 level by Western blot analysis; type: functional, cell-based
Tubulin (Homo sapiens) [19] = target: T1, Tubulin (Homo sapiens); experiment: Inhibition of tubulin polymerization (unknown origin) at 5 uM by cell-free tubulin polymerization assay; type: protein-complex assay
SK-OV-3 [20] = experiment: Induction of cell cycle arrest in human SKOV3 cells assessed as accumulation at G2/M phase at 500 nM after 24 hrs by FCM analysis (reference value: 15.30%); type: functional
SK-OV-3 [21] = experiment: Antimitotic effect in human SKOV3 cells assessed as decrease in p-cdc2 level by Western blot analysis; type: functional, cell-based
Tubulin (Homo sapiens) [22] = target: T1, Tubulin (Homo sapiens); experiment: Inhibition of tubulin polymerization (unknown origin) at 5 to 10 uM by cell-free tubulin polymerization assay; type: protein-complex assay
SK-OV-3 [23] = experiment: Induction of cell cycle arrest in human SKOV3 cells assessed as accumulation at G2 phase at 500 nM after 24 hrs by FCM analysis (reference value: 15.07%); type: functional
SK-OV-3 [24] = experiment: Induction of cell cycle arrest in human SKOV3 cells assessed as accumulation at G1 phase at 100 nM after 24 hrs by FCM analysis (reference value: 60.84%); type: functional
SK-OV-3 [25] = experiment: Induction of cell cycle arrest in human SKOV3 cells assessed as accumulation at G2/M phase at 100 nM after 24 hrs by FCM analysis (reference value: 15.30%); type: functional
Rattus norvegicus = experiment: Prodrug conversion in rat assessed as 4-(4-ethoxyphenyl)-5-(3,4,5-trimethoxyphenyl)thiazol-2-amine in plasma measured as half life at 10 mg/kg, iv; type: ADME, organism-based; parameters: dose 10 mg/kg, route intravenous; settings: in vivo
SK-OV-3 [26] = experiment: Induction of apoptosis in human SKOV3 cells assessed as PARP cleavage at 100 to 1000 nM after 48 hrs by Western blot analysis; type: functional, cell-based
SK-OV-3 [27] = experiment: Induction of apoptosis in human SKOV3 cells assessed as decrease in pro-caspase-3 protein level at 100 to 1000 nM after 48 hrs by Western blot analysis; type: functional, cell-based
SK-OV-3 [28] = experiment: Induction of cell cycle arrest in human SKOV3 cells assessed as accumulation at G2 phase at 50 nM after 24 hrs by FCM analysis (reference value: 15.07%); type: functional
Tubulin (Homo sapiens) [29] = target: T1, Tubulin (Homo sapiens); experiment: Inhibition of tubulin polymerization in human SKOV3 cells assessed as increase in polymerized (insoluble) tubulin level at 0.1 to 1 uM after 24 hrs by Western blot analysis; type: cell-based; settings: SK-OV-3
SK-OV-3 [30] = experiment: Induction of cell cycle arrest in human SKOV3 cells assessed as accumulation at S phase at 50 nM after 24 hrs by FCM analysis (reference value: 24.09%); type: functional
SK-OV-3 [31] = experiment: Induction of cell cycle arrest in human SKOV3 cells assessed as accumulation at S phase at 100 nM after 24 hrs by FCM analysis (reference value: 24.09%); type: functional
SK-OV-3 [32] = experiment: Induction of cell cycle arrest in human SKOV3 cells assessed as accumulation at G1 phase at 50 nM after 24 hrs by FCM analysis (reference value: 60.84%); type: functional
SK-OV-3 [33] = experiment: Induction of cell cycle arrest in human SKOV3 cells assessed as accumulation at G1 phase at 500 nM after 24 hrs by FCM analysis (reference value: 60.84%); type: functional
SK-OV-3 [34] = experiment: Induction of apoptosis in human SKOV3 cells assessed as decrease in Bcl-2/Bax ratio at 100 to 1000 nM after 48 hrs by Western blot analysis; type: functional, cell-based
HepG2 [35] = experiment: Disruption of microtubule organization in human HepG2 cells at 500 nM after 12 hrs by DAPI staining-based fluorescence microscopy; type: functional, cell-based
HepG2 [36] = experiment: Disruption of microtubule organization in human HepG2 cells at 100 nM after 12 hrs by DAPI staining-based fluorescence microscopy; type: functional, cell-based
SK-OV-3 [37] = experiment: Induction of cell cycle arrest in human SKOV3 cells assessed as accumulation at G2 phase at 100 nM after 24 hrs by FCM analysis (reference value: 15.07%); type: functional

## CCOc1ccc(-c2nc(N)sc2-c2cc(OC)c(OC)c(OC)c2)cc1
[1]
  IC50: 200 nM
[2]
  solubility: < 100 µM
HepG2 [3]
  IC50: 210 nM
[4]
  IC50: 10 nM

## CCOc1ccc(-c2nc(NC(=O)[C@@H](N)CCSC)sc2-c2cc(OC)c(OC)c(OC)c2)cc1
[1]
  IC50: > 2000 nM
HepG2 [3]
  IC50: 520 nM
[4]
  IC50: 380 nM

## CCOc1ccc(-c2nc(NC(=O)[C@@H]3CCCN3)sc2-c2cc(OC)c(OC)c(OC)c2)cc1.Cl
[1]
  IC50: > 2000 nM
Serum [5]
  Drug degradation: 16.55%
[2]
  solubility: 458 µM
HepG2 [3]
  IC50: 110 nM
Serum [6]
  Drug degradation: 12.54%
[4]
  IC50: 80 nM
NCI-H460
  Activity: Active
[7]
  inhibition in vivo at 20 mg/kg: 39.4%

## CCOc1ccc(-c2nc(NC(=O)[C@H](N)Cc3ccccc3)sc2-c2cc(OC)c(OC)c(OC)c2)cc1
[1]
  IC50: > 2000 nM
HepG2 [3]
  IC50: 600 nM
[4]
  IC50: > 2000 nM

## CCOc1ccc(-c2nc(NC(=O)[C@@H](N)Cc3ccccc3)sc2-c2cc(OC)c(OC)c(OC)c2)cc1.Cl
[1]
  IC50: > 2000 nM
Serum [5]
  Drug degradation: 70.21%
[2]
  solubility: 436 µM
HepG2 [3]
  IC50: 90 nM
Serum [6]
  Drug degradation: 45.85%
[4]
  IC50: 100 nM
NCI-H460
  Activity: Active
[7]
  inhibition in vivo at 20 mg/kg: 46.1%

## CCOc1ccc(-c2nc(NC(=O)CN)sc2-c2cc(OC)c(OC)c(OC)c2)cc1.Cl
[1]
  IC50: 210 nM
Serum [5]
  Drug degradation: 25.92%
[8]
  inhibition in vivo at 10 mg/kg: 17.6%
[2]
  solubility: > 10000 µM
SK-OV-3 [9]
  Activity: Active
HepG2 [3]
  IC50: 260 nM
Serum [6]
  Drug degradation: 17.43%
[4]
  IC50: 200 nM
NCI-H460
  Activity: Active
[7]
  inhibition in vivo at 20 mg/kg: 51.1%

## CCOc1ccc(-c2nc(NC(=O)[C@H](N)CC(C)C)sc2-c2cc(OC)c(OC)c(OC)c2)cc1.Cl
[1]
  IC50: 190 nM
Serum [5]
  Drug degradation: 91.1%
[8]
  inhibition in vivo at 10 mg/kg: 33.1%
[2]
  solubility: 554 µM
SK-OV-3 [9]
  Activity: Active
HepG2 [3]
  IC50: 140 nM
Serum [6]
  Drug degradation: 70.78%
[4]
  IC50: 90 nM
NCI-H460
  Activity: Active
[7]
  inhibition in vivo at 20 mg/kg: 52.6%

## CCOc1ccc(-c2nc(NC(=O)[C@H](C)N)sc2-c2cc(OC)c(OC)c(OC)c2)cc1.Cl
[1]
  IC50: 210 nM
Serum [5]
  Drug degradation: 99.53%
[8]
  inhibition in vivo at 10 mg/kg: 28.7%
[2]
  solubility: > 10000 µM
SK-OV-3 [9]
  Activity: Active
HepG2 [3]
  IC50: 430 nM
Serum [6]
  Drug degradation: 93.03%
[4]
  IC50: 460 nM
NCI-H460
  Activity: Active
[7]
  inhibition in vivo at 20 mg/kg: 56.6%

## CCOc1ccc(-c2nc(NC(=O)[C@@H](N)C(C)C)sc2-c2cc(OC)c(OC)c(OC)c2)cc1.Cl
SK-OV-3 [10]
  Activity: Active
Tubulin (Homo sapiens) [11]
  inhibition: Dose-dependent effect
Tubulin (Homo sapiens) [12]
  inhibition: Active
SK-OV-3 [13]
  Activity: Active
SK-OV-3 [14]
  Activity: 3.97%
SK-OV-3 [15]
  Activity: Active
SK-OV-3 [16]
  Activity: Dose-dependent effect
SK-OV-3 [17]
  inhibition: Active
[1]
  IC50: 200 nM
Serum [5]
  Drug degradation: 38.23%
[8]
  inhibition in vivo at 10 mg/kg: 43.1%
SK-OV-3 [18]
  inhibition: Active
Tubulin (Homo sapiens) [19]
  inhibition: Active
SK-OV-3 [20]
  Activity: 93.1%
SK-OV-3 [21]
  inhibition: Active
Tubulin (Homo sapiens) [22]
  inhibition: Active
SK-OV-3 [23]
  Activity: 94.51%
SK-OV-3 [24]
  Activity: 43.5%
[2]
  solubility: > 10000 µM
SK-OV-3 [25]
  Activity: 41.4%
Rattus norvegicus
  t1/2: 2.93 h
SK-OV-3 [9]
  Activity: Active
SK-OV-3 [26]
  Activity: Active
SK-OV-3 [27]
  Activity: Active
SK-OV-3 [28]
  Activity: 10.22%
Tubulin (Homo sapiens) [29]
  inhibition: Active
HepG2 [3]
  IC50: 390 nM
Serum [6]
  Drug degradation: 12.77%
SK-OV-3 [30]
  Activity: 34.11%
SK-OV-3 [31]
  Activity: 15.49%
[4]
  IC50: 420 nM
SK-OV-3 [32]
  Activity: 55.67%
SK-OV-3 [33]
  Activity: 1.22%
SK-OV-3 [34]
  Activity: Active
NCI-H460
  Activity: Active
HepG2 [35]
  Activity: Active
HepG2 [36]
  Activity: Active
[7]
  inhibition in vivo at 20 mg/kg: 55%
SK-OV-3 [37]
  Activity: 40.71%

## CCOc1ccc(-c2nc(NC(=O)[C@H]3CCCN3)sc2-c2cc(OC)c(OC)c(OC)c2)cc1
[1]
  IC50: > 2000 nM
HepG2 [3]
  IC50: 290 nM
[4]
  IC50: 510 nM

## CCOc1ccc(-c2nc(NC(=O)C(N)COCc3ccccc3)sc2-c2cc(OC)c(OC)c(OC)c2)cc1.Cl (centres undefined)
[1]
  IC50: > 2000 nM
Serum [5]
  Drug degradation: 42.56%
[2]
  solubility: 259 µM
HepG2 [3]
  IC50: 470 nM
Serum [6]
  Drug degradation: 39.46%
[4]
  IC50: 300 nM
NCI-H460
  Activity: Active
[7]
  inhibition in vivo at 20 mg/kg: 44.8%

## CCOc1ccc(-c2nc(NC(=O)C(C)(C)N)sc2-c2cc(OC)c(OC)c(OC)c2)cc1
[1]
  IC50: > 2000 nM
HepG2 [3]
  IC50: 600 nM
[4]
  IC50: 900 nM
